Reference: patent US10781224B2, “Bis(oxymethyl)phosphinic acid and biogenic metal salts thereof as regulators of plant growth and development” (priority 2016, dated 2020)

Tested on: winter wheat (Kazan 560 variety)
Test: Field study: winter wheat seed treatment and spraying, yield and quality of the grain
Type: in vivo
Settings: for Field germination, % / Grain mass from the main ear / Number of grains in an ear / Viability, % / Yield, dt/ha: winter wheat
Method: Field studies were conducted for the BHMPA Mg-salt. The effect of treatment winter wheat seeds (Kazan 560 variety) with BHMPA Mg-salt solutions on the yield and quality of the grain was examined. The field experiment was conducted at a branch of a fallow rotation. The seeds were sowed on Sep. 1, 2015, in an area covering 1.7 hectares of the experimental field located at the experimental base of Tatarstan Research Institute of Agriculture. For comparison, the seeds were treated with the BHMPA Mg-salt solution and the known growth-regulator Melaphen at the same concentrations, optimum for Melaphen.
The experiment was conducted for the following variants: • 1. Control (no seed treatment); • 2. Seed treatment with the BHMPA Mg-salt solution at a 1·10^−7% concentration; • 3. Seed treatment with the BHMPA Mg-salt solution at a 1·10^−7% concentration+spraying with the BHMPA Mg-salt solution at a 1·10^−8% concentration upon vegetation during spring tillering and earing phases; • 4. Seed treatment with the growth regulator Melaphen at a 1·10^−7% concentration; • 5. Seed treatment with Melaphen at a 1·10^−7% concentration and spraying with Melaphen at a 1·10^−8% concentration upon vegetation during spring tillering and earing phases.
The seeds were treated with the experimental compounds together with a seed disinfectant at a rate of 10 ml/T. The vegetating plants were treated at a rate of 5 ml/ha. Identical field operations appropriate for that zone as well as plant protection measures against weeds and disease, were applied in all cases.
Results of field experiments with BHMPA Mg-salt as the main growth-regulating component of said pre-sowing seed treatment combined with additional treatment of winter wheat plants with other claimed BHMPA salts, are presented in Table XXXV.

[1] = seed treatment 1 · 10^−7% + spraying plants with the same substance 1 · 10^−8%

## O=P([O-])(CO)CO.O=P([O-])(CO)CO.[Mg+2] [Mg-salt, Magnesium BHMPA Salt]
field, seed treatment plus additional spraying during spring tillering and earing phases
  plant viability: up to 61%
field, seeds treated at 1·10^−7% and plants sprayed with 1·10^−8%, control 21.7 dt/ha
  yield of winter wheat: 30.7 dt/ha
Winter wheat Kazan 560, field, pre-sowing seed treatment, control 41%
  plant viability: up to 55%
Winter wheat Kazan 560, field, pre-sowing seed treatment, control 67%
  germination rate (field): up to 70%
Seed treatment 1 · 10^−7%
  Field germination, %: 70%
  Grain mass from the main ear: 1.1 g
  Number of grains in an ear: 31
  Viability, %: 55%
  Yield, dt/ha: 29.2 dt/ha
[1]
  Field germination, %: 70%
  Grain mass from the main ear: 1.1 g
  Number of grains in an ear: 32
  Viability, %: 61%
  Yield, dt/ha: 30.7 dt/ha
